Measurements reported in publication PMC10103840 (Frontiers in Pharmacology, 2023).
Several values for one entry are separate records, joined by “and”; a condition that tells them apart may be missing. Equal values may be shown once.

How the values were obtained:
human placental barrier = details: for Sampling (% found): amount removed by sampling during 240 min perfusion; for M perfusate (% found): maternal perfusate after 240 min
BeWo cells = details: ref Spiess et al., 2022b, cited from earlier work
BeWo b30 cells [1] = assay: Sodium fluorescein (NaF) exclusion assay for monolayer formation; assay type: in vitro ADME, human; details: day 9 after seeding, 5 μM apical, 60 min
Experimental: Measurement of transepithelial electrical resistance (TER) was used to assess the tightness of a cell-to-cell barrier, and the electrical capacitance Ccl, provided additional information about the properties of the cell layer (e.g., presence of microvilli and other membrane extrusions). TER and Ccl values were recorded in 15 min time intervals, using a cellZscope®. TER values were corrected for the surface area (Ωcm^2) and the reference resistance (well with the same filter insert and medium, but absence of cells). Moreover, a permeability assay with sodium fluorescein (NaF) was performed on days 7–11 (n = 3). The basolateral compartment of a transparent 24-well plate consisted of PBS only (1′000 μL) while NaF (5 μM in PBS; 200 μL) was added to the apical compartment for 60 min. The control consisted of cell-free inserts (n = 3). Basolateral samples (50 μL) were directly added to black Nunc MaxiSorp microtiter plates, and concentrations were determined using a Cytation 3 fluorescence microplate reader (BioTek Instruments; excitation wavelength 460 nm; emission wavelength 515 nm). […]
hyperforin, h ypericin, and valerenic acid. The compounds were spiked into PBS and then […]
to avoid interference of any stabilit y issues. […]
four independent experiments.
Supplementary Figure 3. Evaluation of monolayer formation using a sodium fluorescein […]
Control consists of a cell-free insert […]

[2] = System adherence test (empty perfusion chamber, maternal circuit only); assay type: in vitro ADME; details: % of initial concentration, 5 μM in PM, no placental tissue, 240 min, n = 3
Experimental: The dissolution and adherence of the compounds to the perfusion equipment and to the tubing system was assessed before starting perfusions with human placentae. […] The compounds were directly dissolved in PM at a final concentration of 5 μM (100 mL reservoir) and individually tested in three independent experiments (n = 3).

[3] = Stability assay in PBS, perfusion medium and placental homogenates; assay type: in vitro ADME, human; details: 360 min
Experimental: In short, after spiking the various matrices with the study compounds, samples were either processed immediately for U(H)PLC-MS/MS analysis (C0), or kept at 4°C/37°C on an orbital shaker (600 rpm) for 360 min before processing for U(H)PLC-MS/MS analysis. Samples were processed via solid phase extraction or protein precipitation prior to analysis.

placental tissue = assay: Histopathological evaluation of perfused placentae; design: species or system human
Experimental: Immediately after perfusion the placentae were fixed in 4% paraformaldehyde for at least 24 h. Tissue samples from representative placental tissue sections, each from perfused, non-perfused, and transitional area were prepared to perform a pathological examination. For this purpose, the tissue was embedded in paraffin, cut (∅ 2-3 µm), and stained (standard hematoxylin-eosin stain, Braun-Brenn modified Gram stain) according to the standards of routine histopathological diagnosis of the Department of Pathology and Molecular Pathology (University Hospital of Zurich). […] The blood void and width of the intervillous space and fetal blood vessels in the chorionic villi provided information about the quality of perfusion, and particular attention was paid to the presence of intravascular thrombi. General signs of degeneration, such as vacuolization of the cytotrophoblast, villous vascular endothelium viability, and formation of hydropic villous changes compared with non-perfused tissue indicated whether tissue damage might have occurred during perfusion. Microscopic effects and placental tissue damage in the perfused area were expressed in relative amounts (%) to the non-perfused tissue.

[4] = In vitro Transwell permeability assay across BeWo b30 cell layer; details: human
Experimental: (§1) BeWo b30 choriocarcinoma cells were obtained from Dr. Tina Buerki-Thurnherr (Empa, St. Gallen, Switzerland), with permission from Dr. Alan L. Schwartz (Washington University School of Medicine, St. Louis MO, USA), and were cultivated in F-12 K Nut Mix supplemented with 10% heat inactivated FBS, antibiotics (100 U/mL penicillin, 100 µg/mL […]), and 2 mM L-glutamine (all from Gibco). The cells were cultivated in a humidified incubator at 37°C and 5% CO2 atmosphere.
(§2) BeWo b30 cells were cultured on Transwell® polycarbonate membrane inserts (24-well format; 0.4 μm pore size, 0.33 cm^2 cell growth area, 200 μL apical volume, 1′000 μL basolateral volume; Corning, Sigma-Aldrich) at a density of 60′000 cells/well. These inserts were then cultivated in a cellZscope (nanoAnalytics) at 37°C/5% CO2. Cell culture medium was replaced every 2 days up to 11 days to find the best possible conditions.
(§3) BeWo b30 cells were cultured in transparent 24-well plates under the same conditions as mentioned above and transferred to the cellZscope® at day 8 to record TER and Ccl values. After 24 h (day 9) and when a TER of 30–60 Ωcm^2 was reached and Ccl was between 0.5 and 5.0 μF/cm^2, the permeability assay was initiated by adding valerenic acid (5 μM; in HBSS with 4% BSA) to the apical compartment, while the basolateral compartment contained 1′000 μL of HBSS only. […] Samples (150 μL apical, 800 μL basolateral) were collected at each time point (0, 15, 30, 60 min; one insert per time point). After 60 min, a part of the inserts was transferred back to the cellZscope® to monitor TER and Ccl values during another 24 h. The cells grown on the other part of the inserts were quickly washed with 200 μL of cold HBSS and then lysed with 700 μL acetonitrile (100 μL apical, 600 μL basolateral) for 40 min on an orbital shaker (450 rpm, room temperature) to determine the test substance cell contents.
(§4) Apparent permeability coefficients (Papp) were calculated according to the following Eq. 1: Papp cm/s=∆Q/∆t/ACA0 (1) where ΔQ/Δt is the rate of amount transported to the receiver compartment, A is the membrane surface area (0.33 cm^2), and C A0 is the initial concentration in the apical compartment.
(§5) The clearance values were calculated according to the following Eq. 2 ([Neuhaus et al., 2008]): Clearance μL=CBnVB/CA−VB/VA∙∑CBn−1 (2) where C Bn and V B are the concentration and volume in the basolateral compartment at a specific timepoint (n), respectively; C A and VA are the concentration and volume in the apical compartment, respectively, and C Bn-1 is the total amount of substance found in the basolateral compartment up to the previous timepoint (n-1).
(§6) Recovery (mass balance) of each compound was calculated according to the following Eq. 3: Recovery %=CAfVA+CBfVB+CCfVC/CA0VA∙100 (3) where C Af , C Bf and C Cf are the final compound concentrations in apical, basolateral, and cellular compartments, respectively; C A0 is the initial concentration in the apical compartment, and V A , V B and V C are the volumes in the respective compartments.
(§7) For valerenic acid, 150 µL of the IS in MeOH were added to 50 µL of sample, and the mixture centrifuged for 20 min at 13′200 rpm/16′100 rcf at 10°C (Centrifuge 5415R, Eppendorf). An aliquot (50 µL) of the supernatant was collected and transferred into HPLC vials. Vials were centrifuged for additional 20 min prior to U(H)PLC-MS/MS analysis in full loop mode (2 µL).

BeWo b30 cells [5] = assay: as above
Experimental: as §1, §2, §3, §4, §5, §6, §7

in vitro = details: human, pH 7.2
[6] = Transwell control experiments across cell-free inserts; details: semi-permeable cell-free insert, within 60 min, 5 μM
[7] = after 240 min of perfusion, 5 μM added to maternal circuit
[8] = % of amount in maternal sample at beginning
[9] = non-perfused area of same placenta

CC(C)=CCC[C@]1(C)[C@@H](CC=C(C)C)C[C@]2(CC=C(C)C)C(=O)C(CC=C(C)C)=C(O)[C@@]1(C(=O)C(C)C)C2=O [Hyperforin, hyperforin]
Transplacental transfer (in words) (human placental barrier; 240 min perfusion, 5 μM maternal): little transfer to the fetal circuit
Concentration in the maternal compartment (human placental barrier; [7]): 68.6 % of initial concentration
Sampling (% found) (human placental barrier): 21.0 ± 4.5%
M perfusate (% found) (human placental barrier; [8]): 52.2 ± 21.5% and 52.2%
Concentration with increased apoptosis / apoptotic effects (BeWo cells): ≥ 3000 nM

O=C([O-])c1ccccc1-c1c2ccc(=O)cc-2oc2cc([O-])ccc12.[Na+].[Na+] [NaF, sodium fluorescein]
Basolateral amount of NaF (BeWo b30 cells [1]): 2.8 % of the initial NaF concentration

CC1=C2[C@H](/C=C(\C)C(=O)O)CC[C@@H](C)[C@H]2CC1 [Valerenic acid, valerenic acid]
Compound lost / adhering to the perfusion equipment [2]: 5.6% and 5.6% ± 1.9%
Stability in PBS and PM [3]: approx. 100%
Global placental pathology: Else (placental tissue): Formation of artificial cavities in 10% of perfused areas and N and Singular non-occlusive thrombus in stem villus; CCB
Sharp transition perfused/non-perfused (placental tissue): Y and N
Extravasations into villous stroma (in words) (placental tissue; after perfusion): no extravasations into villous stroma
Ruptures of villous vessels (in words) (placental tissue; after perfusion): no ruptures of villous vessels
Emptiness of villous vessels in non-perfused (placental tissue; [9]): 10% and 1%
Hydropic changes in non-perfused (placental tissue; [9]): 5% and 0%
Intervillous spaces without blood in non-perfused (placental tissue; [9]): 70% and 50% and 60% and 40%
Thrombi in villous vessels: in non-perfused too? (placental tissue; [9]): 1%
Vacuolated trophoblast in villi: in non-perfused too? (placental tissue; [9]): 0% and 5%
Thrombi in vessels of stem villi (in words) (placental tissue; perfused and non-perfused): no thrombi detectable
Dilatated intervillous space (placental tissue; perfused area): 50% and 90% and 70%
Intervillous spaces without blood (placental tissue; perfused area): 95%
Emptiness of villous vessels (placental tissue; perfused area, individual experiments): 95% and 80% (2×) and 90%
recovery at 60 min, 5 μM [4]: 73.7%
Passage across the placental cell layer (in words) (BeWo b30 cells [5]; 5 μM apical, HBSS with 4% BSA, 60 min): did not cross the placental cell layer within 60 min
Papp (BeWo b30 cells [5]; apical to basolateral, BeWo b30 cell layer, 5 μM): zero
Concentration in the fetal compartment (human placental barrier; [7]): 44.0 % of initial concentration
Concentration in the maternal compartment (human placental barrier; [7]): 45.0 % of initial concentration
Sampling (% found) (human placental barrier): 24.1 ± 4.8%
F perfusate (% found) (human placental barrier; fetal perfusate after 240 min, % of amount in maternal sample at beginning): 33.1 ± 10.7% and 33.1%
FM ratio at 240 min (human placental barrier; fetal/maternal concentration ratio, 240 min, antipyrine from control perfusions): 1.01
M perfusate (% found) (human placental barrier; [8]): 34.4%
Time to equilibrium between fetal and maternal compartment (human placental barrier; perfusion profiles, antipyrine as connectivity control): 240 min
recovery at 240 min, 5 μM (in vitro): 91.5%
Concentrations not lowering viability, no increase in apoptosis or genotoxicity, no negative effect on metabolic activity and cell differentiation (BeWo cells; BeWo b30 cells): up to 30 μM
Clearance across cell-free insert [6]: 28.3 µL
